Experimental data: US12728177B2, “Disinfectant composition with rapid antiviral efficacy” (priority 2015, dated 2026)

Assays:
[1] = tested on: Bacteriophage Phi X174 (ATCC 13706-81); assay: Virucidal infectivity (percent reduction in virus infectivity, E. coli outgrowth with resazurin dye); conditions: 10-minute exposure;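 also: exposed phage diluted into broth, E. coli outgrowth followed 16-24 h at 37 °C by fluorescence rate, unexposed phage set as 100% signal, phage-free as 0%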
[2] = 25° C.; cited from earlier work
[3] = secondary agent 2-7 mM + Maleic Acid 3 mM
[4] = secondary agent 2-7 mM + Phosphonc Acid 50-150 mM
[5] = secondary agent 2-7 mM + Sulfosuccinic Acid 10-32 mM

For `O=C(O)CC(C(=O)O)S(=O)(=O)O` (stereo not shown) [Sulfosuccinic Acid], the “reduction in virus infectivity, Primary Antiviral Agent without secondary agent (None)” value ([1]; Sulfosuccinic Acid 10-32 mM, no secondary agent) is listed as 0-75% and the “pka1 (first acid dissociation constant)” value [2] is listed as −1.65.

For `[Cl-].[Cl-].[Zn+2]` [Zinc Chloride], the “% Reduction, Secondary Antiviral Agent Alone” value (from here on “% Reduction”) ([1]; agent alone 2 mM) was 5%, the “% Reduction” value ([1]; agent alone 6 mM) was 0% and the “% Reduction” value ([1]; agent alone 18 mM) was 0%. For the same molecule, the “% Reduction” value ([1]; agent alone 53 mM) was 0%, the “reduction in virus infectivity, in Combination with Maleic Acid (3 mM)” value (“reduction in virus infectivity … (3 mM)” below) ([1]; secondary agent 53 mM + Maleic Acid 3 mM) was 0% and the “reduction in virus infectivity, in Combination with Phosphonc Acid (50-150 mM)” value (“reduction in virus infectivity … (50-150 mM)” for short) ([1]; secondary agent 53 mM + Phosphonc Acid 50-150 mM) was 88%. For the same molecule, the “reduction in virus infectivity, in Combination with Sulfosuccinic Acid (10-32 mM)” value (“reduction in virus infectivity … (10-32 mM)” for short) ([1]; secondary agent 53 mM + Sulfosuccinic Acid 10-32 mM) was 99%, the “reduction in virus infectivity … (3 mM)” value [1, 3] was 99% and the “reduction in virus infectivity … (50-150 mM)” value [1, 4] was 10%. The “reduction in virus infectivity … (10-32 mM)” value [1, 5] was 99%, the “reduction in virus infectivity … (3 mM)” value ([1]; secondary agent 6-13 mM + Maleic Acid 3 mM) was 99% and the “reduction in virus infectivity … (50-150 mM)” value ([1]; secondary agent 6-13 mM + Phosphonc Acid 50-150 mM) was 28%. For the same molecule, the “reduction in virus infectivity … (10-32 mM)” value ([1]; secondary agent 6-13 mM + Sulfosuccinic Acid 10-32 mM) was 99%, the “reduction in virus infectivity … (3 mM)” value ([1]; secondary agent 18-26 mM + Maleic Acid 3 mM) was 99% and the “reduction in virus infectivity … (10-32 mM)” value ([1]; secondary agent 18-26 mM + Sulfosuccinic Acid 10-32 mM) was 99%.

For `[Cl][Fe]([Cl])[Cl]` [iron (iii) chloride], the “% Reduction” value ([1]; agent alone 8 mM) was 3%, the “% Reduction” value ([1]; agent alone 17 mM) was 18% and the “% Reduction” value ([1]; agent alone 33 mM) was 21%. The “% Reduction” value ([1]; agent alone 66 mM) was 32%, the “reduction in virus infectivity … (3 mM)” value ([1]; secondary agent 8 mM + Maleic Acid 3 mM) was 0% and the “reduction in virus infectivity … (10-32 mM)” value ([1]; secondary agent 8 mM + Sulfosuccinic Acid 10-32 mM) was 99%. For the same molecule, the “reduction in virus infectivity … (3 mM)” value ([1]; secondary agent 17 mM + Maleic Acid 3 mM) was 23%, the “reduction in virus infectivity … (10-32 mM)” value ([1]; secondary agent 17 mM + Sulfosuccinic Acid 10-32 mM) was 99% and the “reduction in virus infectivity … (3 mM)” value ([1]; secondary agent 33 mM + Maleic Acid 3 mM) was 0%. The “reduction in virus infectivity … (10-32 mM)” value ([1]; secondary agent 33 mM + Sulfosuccinic Acid 10-32 mM) was 99%, the “reduction in virus infectivity … (3 mM)” value ([1]; secondary agent 66 mM + Maleic Acid 3 mM) was 0% and the “reduction in virus infectivity … (10-32 mM)” value ([1]; secondary agent 66 mM + Sulfosuccinic Acid 10-32 mM) was 99%.

For Aluminum chlorohydrate, the “% Reduction” value ([1]; agent alone 2 mM) was 1%, the “% Reduction” value ([1]; agent alone 6 mM) was 3% and the “% Reduction” value ([1]; agent alone 18 mM) was 2%. For the same molecule, the “% Reduction” value ([1]; agent alone 55 mM) was 9%, the “reduction in virus infectivity … (3 mM)” value ([1]; secondary agent 55 mM + Maleic Acid 3 mM) was 99% and the “reduction in virus infectivity … (50-150 mM)” value ([1]; secondary agent 55 mM + Phosphonc Acid 50-150 mM) was 68%. The “reduction in virus infectivity … (10-32 mM)” value ([1]; secondary agent 55 mM + Sulfosuccinic Acid 10-32 mM) was 99%, the “reduction in virus infectivity … (3 mM)” value [1, 3] was 17% and the “reduction in virus infectivity … (50-150 mM)” value [1, 4] was 43%. The “reduction in virus infectivity … (10-32 mM)” value [1, 5] was 99%, the “reduction in virus infectivity … (3 mM)” value ([1]; secondary agent 6-14 mM + Maleic Acid 3 mM) was 28% and the “reduction in virus infectivity … (50-150 mM)” value ([1]; secondary agent 6-14 mM + Phosphonc Acid 50-150 mM) was 34%. For the same molecule, the “reduction in virus infectivity … (10-32 mM)” value ([1]; secondary agent 6-14 mM + Sulfosuccinic Acid 10-32 mM) was 99%, the “reduction in virus infectivity … (3 mM)” value ([1]; secondary agent 18-27 mM + Maleic Acid 3 mM) was 9% and the “reduction in virus infectivity … (50-150 mM)” value ([1]; secondary agent 18-27 mM + Phosphonc Acid 50-150 mM) was 29%. For the same molecule, the “reduction in virus infectivity … (10-32 mM)” value ([1]; secondary agent 18-27 mM + Sulfosuccinic Acid 10-32 mM) was 99%.

In the case of Laureth-9 [Hetoxol LA-9], the “% Reduction” value ([1]; agent alone 6 mM) is reported as 0%, the “% Reduction” value ([1]; agent alone 17 mM) is reported as 0% and the “% Reduction” value ([1]; agent alone 50 mM) is reported as 0%. The “% Reduction” value ([1]; agent alone 150 mM) was 2%, the “reduction in virus infectivity … (3 mM)” value ([1]; secondary agent 0.2 mM + Maleic Acid 3 mM) was 9% and the “reduction in virus infectivity … (50-150 mM)” value ([1]; secondary agent 0.2 mM + Phosphonc Acid 50-150 mM) was 57%. For the same molecule, the “reduction in virus infectivity … (10-32 mM)” value ([1]; secondary agent 0.2 mM + Sulfosuccinic Acid 10-32 mM) was 5%, the “reduction in virus infectivity … (3 mM)” value ([1]; secondary agent 1 mM + Maleic Acid 3 mM) was 65% and the “reduction in virus infectivity … (50-150 mM)” value ([1]; secondary agent 1 mM + Phosphonc Acid 50-150 mM) was 62%. For the same molecule, the “reduction in virus infectivity … (10-32 mM)” value ([1]; secondary agent 1 mM + Sulfosuccinic Acid 10-32 mM) was 0%, the “reduction in virus infectivity … (3 mM)” value ([1]; secondary agent 5 mM + Maleic Acid 3 mM) was 0% and the “reduction in virus infectivity … (50-150 mM)” value ([1]; secondary agent 5 mM + Phosphonc Acid 50-150 mM) was 11%. For the same molecule, the “reduction in virus infectivity … (10-32 mM)” value ([1]; secondary agent 5 mM + Sulfosuccinic Acid 10-32 mM) was 0%, the “reduction in virus infectivity … (3 mM)” value ([1]; secondary agent 27 mM + Maleic Acid 3 mM) was 0% and the “reduction in virus infectivity … (50-150 mM)” value ([1]; secondary agent 27 mM + Phosphonc Acid 50-150 mM) was 10%. The “reduction in virus infectivity … (10-32 mM)” value ([1]; secondary agent 27 mM + Sulfosuccinic Acid 10-32 mM) was 0%.
